Data reported in patent US11390621B2, “Chiral indole compounds and their use” (ARIAGEN, INC., priority 2019, dated 2022).
Values joined by “and” are separate entries in the source; they are usually repeats but may differ in a detail not shown here. Identical values can stand only once.

Key:
[1] = CYP profiling: turnover in human liver microsomes, 30 min, no inhibitor; type: in vitro ADME; design: % Compound Metabolized at 30 min, No Inhibitor: concentration or dose not given beside the values; conditions: HLMs
Procedure: In order to investigate the contributions of CYP1A2 and CYP3A4 to the metabolism of the compounds of the present disclosure, human liver microsomes were incubated with the test compounds for 30 minutes in the presence of selective chemical inhibitors furafylline (1A2) and ketoconazole (3A4).

[2] = system: human hepatocytes; test: Hepatocyte intrinsic clearance assay (metabolic stability), human hepatocytes; type: in vitro ADME; conditions: for EH (hepatic extraction ratio): well stirred liver model, fu=1
Text: (§1) The liver is an important organ in the body for drug metabolism. This Example describes hepatocyte intrinsic clearance assays using both human and rat hepatocytes to evaluate the metabolic stability of the indole compounds disclosed herein. The parameters measured include t1/2 (half-life), CLint (intrinsic clearance), and EH (hepatic extraction ratio).
(§2) Testosterone (Lot FE111011-01) was obtained from Cerilliant (Round Rock, Tex.). 7-hydroxycoumarin (Lot 11631ED) was obtained from Sigma Aldrich (St. Louis, Mo.). Cryopreserved human hepatocytes pooled from ten donor males (X008001), cryopreserved male IRC/CD-1 mouse hepatocytes (M005052), INVITROGRO HI Medium (incubation), and INVITROGRO HT Medium (thawing) were obtained from Bioreclamation IVT (Baltimore, Md.). All solvents were obtained from commercial sources and used without further purification.
(§3) Each test compound was prepared as a 1 mM stock solution in DMSO. A 2 μM solution of test compound and positive controls were prepared in INVITROGRO HI Medium (incubation). These solutions were pre-warmed in a sterile incubator set to maintain 37° C., 5% CO2, and 98% humidity. Cryopreserved hepatocytes were prepared at a concentration of 2×10^6 living cells/mL in incubation media and pre-warmed in the incubator. The compound solutions and hepatocyte mixtures were then combined at a ratio of 1:1 (v:v). The final volume of the reaction mixture was 750 μL, containing 1 μM test compound (10 μM for 7-hydroxycoumarin) and […]. The reaction mixture was placed in the incubator on a plate shaker. After 0, 15, 30, 60, 90, and 120 minutes of incubation, 100 μL of reaction mixtures were removed from the incubation plate and mixed with 150 μL of ice-cold acetonitrile in a designated well of a 96-well crash plate. The 96-well crash plate was placed on ice for 15 min, and samples were centrifuged (3,600 RPM, 10 min, 4° C.) to precipitate protein. The supernatants were diluted 1:1 (v:v) with water containing 0.15 μM verapamil and/or 1 μM tolbutamide (internal standards for positive and negative modes, respectively) in a 96-well shallow injection plate. This plate was sealed for LC-MS analysis. All measurements were done in duplicate.
(§4) The residual compound remaining (% R) was determined from LC-MS peak areas by comparison to the zero time point. Metabolic half-life (t1/2) and intrinsic clearance (CLint) values were calculated from the slope of the plot of ln (% R) vs. time and the concentration of hepatocytes present in the incubation. Percent remaining at 60 minutes was calculated by plugging in the 60 minute value into the slope equation generated by the percent remaining time points.
(§5) In vivo hepatic clearance CLH was calculated using the well stirred liver model according to the following equation:
(§6) [formula] where QH is the total liver blood flow, fu is unbound fraction of the drug, and CL′int is defined as follows: CL′int=CLint×(10^6 cells/g of liver weight)×(g liver weight/kg of body weight). In the first approximation, used in this study, fu=1.
(§7) Hepatic extraction ratio EH was calculated using the following equation:
(§8) [formula] Corresponding physiological parameters used in calculations for all species are shown below in Table 3.

[3] = as above; type: in vitro ADME; conditions: male, human, cryopreserved pooled hepatocytes, Human Hepatocytes, 1 μM test compound
Text: as §1, §2, §3, §4, §5, §6, §7, §8

[4] = target: T1, AhR (Homo sapiens, UniProt P35869); test: EROD assay (7-ethoxy-resorufin-O-deethylase; CYP1A1 activity) in human HepG2 cells; type: cell-based; conditions: for EC90: HepG2, human HepG2 cells
T1 construct: host or cells: human HepG2 cells
T1 sequence (P35869 11-848): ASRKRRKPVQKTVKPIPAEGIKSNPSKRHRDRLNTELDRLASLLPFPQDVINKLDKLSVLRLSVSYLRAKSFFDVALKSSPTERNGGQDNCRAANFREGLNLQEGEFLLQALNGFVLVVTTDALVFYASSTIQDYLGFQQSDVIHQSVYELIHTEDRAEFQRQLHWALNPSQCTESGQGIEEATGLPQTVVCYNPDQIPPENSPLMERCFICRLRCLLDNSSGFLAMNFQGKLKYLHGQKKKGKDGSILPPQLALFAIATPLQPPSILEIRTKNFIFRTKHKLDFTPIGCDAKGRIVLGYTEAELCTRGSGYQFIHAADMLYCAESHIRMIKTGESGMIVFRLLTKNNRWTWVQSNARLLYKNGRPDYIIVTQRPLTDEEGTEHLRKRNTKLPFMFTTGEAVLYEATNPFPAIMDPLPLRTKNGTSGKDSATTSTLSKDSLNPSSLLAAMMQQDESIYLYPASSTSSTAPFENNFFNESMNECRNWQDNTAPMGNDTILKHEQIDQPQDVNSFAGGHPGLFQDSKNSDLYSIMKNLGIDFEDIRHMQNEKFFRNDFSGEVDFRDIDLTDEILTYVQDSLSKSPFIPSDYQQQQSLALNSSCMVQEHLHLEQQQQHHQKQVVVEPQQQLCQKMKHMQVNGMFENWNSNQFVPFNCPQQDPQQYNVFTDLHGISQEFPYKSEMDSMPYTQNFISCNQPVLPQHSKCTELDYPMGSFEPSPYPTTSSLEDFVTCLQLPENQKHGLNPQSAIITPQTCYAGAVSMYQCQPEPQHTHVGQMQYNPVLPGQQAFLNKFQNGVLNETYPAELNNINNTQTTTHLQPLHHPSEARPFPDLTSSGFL
Procedure: CYP1A1 induction is under the control of the AhR signaling pathway. This Example describes an in vitro assay (7-ethoxy-resorufin-O-deethylase (EROD) assay) that evaluated the AhR modulating activities of the indole compounds described herein. In this assay, the indole compounds were incubated with human HepG2 cells or mouse Hepa1-6 cells. The activity of CYP1A1 in the cells was measured by the conversion of substrate 7-ethoxyresorufin, with the readout being a fluorescence signal associated with the conversion product. The EC50 values of the indole compounds as well as the maximum luminescence induced by them in the assay were determined.
Human HepG2 cells were obtained from Sigma Aldrich (Catalog 85011430-1VL).
Human HepG2 cells were grown to 60-80% confluency in tissue culture flasks, lifted with non-enzymatic cell dissociation solution (cell stripper), seeded in a 384-well plate at 5,000 cells per well, treated with the test compounds, and incubated for 20 hours overnight at 37° C. The treatment medium was removed and a solution of substrate 7-ethoxyresorufin (ETX) was added to initiate the reaction. The plate was incubated at 37° C. for 30 minutes. The reaction was subsequently terminated by adding tempered methanol. Fluorescent emission was measured at 590 nm with excitation at 530 nm in a FLEXSTATION III instrument (Molecular Devices).

SMILES: CC[C@H](N)c1csc(C(=O)c2c[nH]c3cc(F)ccc23)n1 [ARI-186, (S)-(4-(1-aminopropyl)thiazol-2-yl)(6-fluoro-1H-indol-3-yl)methanone]
- % Compound Metabolized at 30 min, No Inhibitor [1]: 13%
- metabolic turnover (in words) [1]: very low turnover
- CLint ([2]; Human Hepatocytes, 1 μM test compound): 1.453 μL/min/10^6 cells
- EH (hepatic extraction ratio) ([2]; Human Hepatocytes): 8.7%
- CLint lower than that of ARI-164 (fold improvement) ([2]; human hepatocytes): 10.8 ×
- half-life at 1 μM [3]: 7.9 h
- hepatocyte CLint at 1 μM [3]: 1.5 µL/min/1e6 cells
- EC90 ([4]; Plate 1): 7.4 nM
- fold more potent than ARI-164 by EC50 ([4]; human HepG2 cells): 17.8 ×
- fold more potent than ARI-164 by EC90 ([4]; human HepG2 cells): 18.0 ×
- fold more potent than ARI-187 by EC50 ([4]; human HepG2 cells): 9.5 × and 9.6 ×
- fold more potent than ARI-187 by EC90 ([4]; human HepG2 cells): 20.5 × and 20.6 ×
- EC50 ([4]; human HepG2 cells, Plate 1): 5.8 nM

SMILES: CCC(=O)c1csc(C(=O)c2c[nH]c3cc(F)ccc23)n1 [ARI-143, 1-(2-(6-fluoro-1H-indole-3-carbonyl)thiazol-4-yl)propan-1-one]
- % Compound Metabolized at 30 min, No Inhibitor [1]: 69% and 91%
- EH (hepatic extraction ratio) ([2]; Human Hepatocytes): 26.1% and 25.5% and 25.7%
- EC90 ([4]; Plate 2): 347 nM
- EC50 ([4]; human HepG2 cells, Plate 2): 95.2 nM

SMILES: CC[C@@H](N)c1csc(C(=O)c2c[nH]c3ccc(F)cc23)n1 [ARI-219]
- % Compound Metabolized at 30 min, No Inhibitor [1]: 13%
- EH (hepatic extraction ratio) ([2]; Human Hepatocytes): 11.5%
- half-life at 1 μM [3]: 5.3 h
- hepatocyte CLint at 1 μM [3]: 2.17 µL/min/1e6 cells
- EC90 ([4]; Plate 2): 419 nM
- EC50 ([4]; human HepG2 cells, Plate 2): 124 nM

SMILES: CC(C)(O)c1csc(C(=O)c2c[nH]c3cc(F)ccc23)n1 [ARI-220, (6-fluoro-1H-indol-3-yl)(4-(2-hydroxypropan-2-yl)thiazol-2-yl)methanone]
- % Compound Metabolized at 30 min, No Inhibitor [1]: 41%
- EH (hepatic extraction ratio) ([2]; Human Hepatocytes): 21.6%
- half-life at 1 μM [3]: 1.4 h
- hepatocyte CLint at 1 μM [3]: 8.33 µL/min/1e6 cells
- EC90 ([4]; Plate 2): 476 nM
- EC50 ([4]; human HepG2 cells, Plate 2): 372 nM

SMILES: N[C@@H](c1csc(C(=O)c2c[nH]c3ccccc23)n1)C(F)(F)F [ARI-229]
- % Compound Metabolized at 30 min, No Inhibitor [1]: 0%
- EH (hepatic extraction ratio) ([2]; Human Hepatocytes): 11.4%
- half-life at 1 μM [3]: 2.3 h
- hepatocyte CLint at 1 μM [3]: 5.03 µL/min/1e6 cells
- EC90 ([4]; Plate 2): 204 nM
- EC50 ([4]; human HepG2 cells, Plate 2): 50.3 nM

SMILES: O=C(c1nc([C@H](O)C(F)(F)F)cs1)c1c[nH]c2cc(F)ccc12 [ARI-212]
- % Compound Metabolized at 30 min, No Inhibitor [1]: 43%
- EH (hepatic extraction ratio) ([2]; Human Hepatocytes): 28.9%
- half-life at 1 μM [3]: 0.3 h
- hepatocyte CLint at 1 μM [3]: 44.1 µL/min/1e6 cells
- EC90 ([4]; Plate 1): 150 nM
- EC50 ([4]; human HepG2 cells, Plate 1): 21.9 nM

SMILES: N[C@H](c1csc(C(=O)c2c[nH]c3ccccc23)n1)C(F)(F)F [ARI-228]
- % Compound Metabolized at 30 min, No Inhibitor [1]: 89%
- metabolic turnover (in words) [1]: high turnover
- EH (hepatic extraction ratio) ([2]; Human Hepatocytes): 27.6%
- half-life at 1 μM [3]: 0.2 h
- hepatocyte CLint at 1 μM [3]: 64.4 µL/min/1e6 cells
- EC90 ([4]; Plate 2): 217 nM
- EC50 ([4]; human HepG2 cells, Plate 2): 65.6 nM

SMILES: N[C@@H](c1csc(C(=O)c2c[nH]c3cc(F)ccc23)n1)C(F)(F)F [ARI-224]
- % Compound Metabolized at 30 min, No Inhibitor [1]: 9%
- metabolic turnover (in words) [1]: low turnover
- EH (hepatic extraction ratio) ([2]; Human Hepatocytes): 15.8%
- half-life at 1 μM [3]: 3 h
- hepatocyte CLint at 1 μM [3]: 3.85 µL/min/1e6 cells
- EC90 ([4]; Plate 2): 152 nM
- fold more potent than ARI-164 by EC50 ([4]; human HepG2 cells): 3.1 ×
- fold more potent than ARI-164 by EC90 ([4]; human HepG2 cells): 0.90 ×
- EC50 ([4]; human HepG2 cells, Plate 2): 33.7 nM

SMILES: O=C(c1nc(C2(O)CC2)cs1)c1c[nH]c2cc(F)ccc12 [ARI-221, (6-fluoro-1H-indol-3-yl)(4-(1-hydroxycyclopropyl)thiazol-2-yl)methanone]
- % Compound Metabolized at 30 min, No Inhibitor [1]: 95%
- EH (hepatic extraction ratio) ([2]; Human Hepatocytes): 27.3%
- half-life at 1 μM [3]: 0.5 h
- hepatocyte CLint at 1 μM [3]: 25.3 µL/min/1e6 cells
- EC90 ([4]; Plate 2): 34.5 nM
- EC50 ([4]; human HepG2 cells, Plate 2): 26.1 nM

SMILES: O=C(c1nc([C@@H](O)C(F)(F)F)cs1)c1c[nH]c2cc(F)ccc12 [ARI-211]
- % Compound Metabolized at 30 min, No Inhibitor [1]: 50%
- EH (hepatic extraction ratio) ([2]; Human Hepatocytes): 23.6%
- half-life at 1 μM [3]: 1 h
- hepatocyte CLint at 1 μM [3]: 11.3 µL/min/1e6 cells
- EC90 ([4]; Plate 1): 183 nM
- EC50 ([4]; human HepG2 cells, Plate 1): 35.9 nM

SMILES: CC[C@@H](N)c1csc(C(=O)c2c[nH]c3cc(F)ccc23)n1 [ARI-187, (R)-(4-(1-aminopropyl)thiazol-2-yl)(6-fluoro-1H-indol-3-yl)methanone]
- % Compound Metabolized at 30 min, No Inhibitor [1]: 4%
- EH (hepatic extraction ratio) ([2]; Human Hepatocytes): 4.4%
- half-life at 1 μM [3]: 18.6 h
- hepatocyte CLint at 1 μM [3]: 0.621 µL/min/1e6 cells
- EC90 ([4]; Plate 1): 152 nM
- EC50 ([4]; human HepG2 cells, Plate 1): 55.6 nM
